Data: patent US11046686B2, “Thiadiazole IRAK4 compounds” (Gilead Sciences, Inc., priority 2018, dated 2021)
pEC50, pIC50: −log10 of the molar value. Where two headings read alike, the source gives them in different places.

Assays:
IRAK4 enzyme = IRAK4 enzyme (Homo sapiens (Human), UniProt Q9NWZ3); experiment: IRAK4 Biochemical Assay (TR-FRET, STK1 KinEASE)
Summary of the method: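 TR-FRET endpoint (KinEASE STK1): phosphopeptide detected with cryptate antibody and tracer after EDTA quench, ratio 665/615 nm, normalized to no-inhibitor wells as % inhibition. Reaction: 0.75 nM IRAK4, […] peptide, 500 μM ATP, pH 7.0 HEPES, 120 min room temperature, after 15 min compound preincubation with enzyme.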

TNFα = experiment: IRAK4 Monocyte TNFα Cell Based Assay; parameters: species or system human
Summary of the method: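 TNFα release quantified by HTRF (cryptate/XL665 antibody pair, overnight at RT) after 1 h compound pre-incubation (0.1% DMSO) and 4 h LPS challenge at 50 pg/ml, 37 °C, 5,000 monocytes per well. Signal ratio normalised between unstimulated (0%) and stimulated (100%) controls.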

[1] = Homo sapiens, Monocyte, human monocytes, second part of Table 2, compounds 33-343, unit inferred, read-out: EC50 MONO TNF HTRF
[2] = compounds 1-32, read-out: IC50 HTRF
[3] = Homo sapiens, Monocyte, human monocytes, LPS stimulated, compounds 1-32, read-out: EC50 TNF
[4] = second part of Table 2, compounds 33-343, unit inferred, read-out: IC50 IRAK4-HTBS
[5] = human monocytes, second part of Table 2, compounds 33-343, unit inferred, read-out: EC50 MONO TNF HTRF

IRAK4 enzyme, sequence (Q9NWZ3 whole entry): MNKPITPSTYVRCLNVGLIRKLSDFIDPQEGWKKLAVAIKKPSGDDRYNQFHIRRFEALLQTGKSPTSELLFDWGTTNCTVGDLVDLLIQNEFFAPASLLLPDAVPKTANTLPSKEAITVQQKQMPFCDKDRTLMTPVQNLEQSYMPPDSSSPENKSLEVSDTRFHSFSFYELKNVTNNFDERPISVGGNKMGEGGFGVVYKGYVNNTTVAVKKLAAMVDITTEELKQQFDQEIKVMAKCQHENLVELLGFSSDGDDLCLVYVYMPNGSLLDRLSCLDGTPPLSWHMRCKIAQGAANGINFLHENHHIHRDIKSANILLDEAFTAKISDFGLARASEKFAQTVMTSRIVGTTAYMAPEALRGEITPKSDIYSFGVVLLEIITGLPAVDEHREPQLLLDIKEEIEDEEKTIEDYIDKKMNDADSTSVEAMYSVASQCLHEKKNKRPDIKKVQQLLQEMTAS

SMILES | pIC50 (IRAK4 enzyme) | pEC50 (TNFα; [1]) | also measured
CC(=O)NC12CC(c3nnc(-c4cnc(-c5ccc6cc(C#N)cnn56)cc4NC4CCOCC4)s3)(C1)C2 [Compound 270, N-(3-(5-(6-(3-cyanopyrrolo[1,2-b]pyridazin-7-yl)-4-((tetrahydro-2H-pyran-4-yl)amino)pyridin-3-yl)-1,3,4-thiadiazol-2-yl)bicyclo[1.1.1]pentan-1-yl)acetamide] | 9.19 | 7.97 | 
CC(C)Nc1cc(-c2ccc3cc(C#N)cnn23)ncc1-c1nnc(N2CCN3CCOC[C@H]3C2)s1 [Example 36, (R)-7-(5-(5-(hexahydropyrazino[2,1-c][1,4]oxazin-8(1H)-yl)-1,3,4-thiadiazol-2-yl)-4-(isopropylamino)pyridin-2-yl)pyrrolo[1,2-b]pyridazine-3-carbonitrile] | 9.32 | 8.30 | 
CC(C)Nc1cc(-c2ccc3cc(C#N)cnn23)ncc1-c1nnc(N2CC[C@H](O)C(F)(F)C2)s1 [Example 161, (S)-7-(5-(5-(3,3-difluoro-4-hydroxypiperidin-1-yl)-1,3,4-thiadiazol-2-yl)-4-(isopropylamino)pyridin-2-yl)pyrrolo[1,2-b]pyridazine-3-carbonitrile] | 8.83 | 7.46 | 
CC(C)Nc1cc(-c2ccc3cc(C#N)cnn23)ncc1-c1nnc(N2CC3CCC(C2)O3)s1 [Compound 235, 7-(5-(5-(8-oxa-3-azabicyclo[3.2.1]octan-3-yl)-1,3,4-thiadiazol-2-yl)-4-(isopropylamino)pyridin-2-yl)pyrrolo[1,2-b]pyridazine-3-carbonitrile] | 9.32 | 8.36 | 
CC(=O)NC1CN(c2nnc(-c3cnc(-c4ccc5cc(C#N)cnn45)cc3NC(C)C)s2)C1 [Example 33, N-(1-(5-(6-(3-cyanopyrrolo[1,2-b]pyridazin-7-yl)-4-(isopropylamino)pyridin-3-yl)-1,3,4-thiadiazol-2-yl)azetidin-3-yl)acetamide] | 9.31 | 5.40 | 
CC(C)Nc1cc(-c2ccc3cc(C#N)cnn23)ncc1-c1nnc(N2CCC(C#N)CC2)s1 [Example 310, 7-(5-(5-(4-cyanopiperidin-1-yl)-1,3,4-thiadiazol-2-yl)-4-(isopropylamino)pyridin-2-yl)pyrrolo[1,2-b]pyridazine-3-carbonitrile] | 9.18 | 7.59 | 
CC(C)Nc1cc(-c2ccc3cc(C#N)cnn23)ncc1-c1nnc(N2C3COCC2C3)s1 [Compound 234, 7-(5-(5-(3-oxa-6-azabicyclo[3.1.1]heptan-6-yl)-1,3,4-thiadiazol-2-yl)-4-(isopropylamino)pyridin-2-yl)pyrrolo[1,2-b]pyridazine-3-carbonitrile] | 8.89 | 6.75 | 
CC(C)Nc1cc(-c2ccc3cc(C#N)cnn23)ncc1-c1nnc(CCNC(=O)OC(C)(C)C)s1 [Example 1, tert-butyl (2-(5-(6-(3-cyanopyrrolo[1,2-b]pyridazin-7-yl)-4-(isopropylamino)pyridin-3-yl)-1,3,4-thiadiazol-2-yl)ethyl)carbamate] |  |  | pIC50 (IRAK4 enzyme; [2]): 8.82; pEC50 (TNFα; [3]): 6.51
CC(C)Nc1cc(-c2ccc3cc(C#N)cnn23)ncc1-c1nnc(N2CC(C)(O)C2)s1 [Example 286, 7-(5-(5-(3-hydroxy-3-methylazetidin-1-yl)-1,3,4-thiadiazol-2-yl)-4-(isopropylamino)pyridin-2-yl)pyrrolo[1,2-b]pyridazine-3-carbonitrile] | 9.20 | 7.67 | 
CC1(Nc2cc(-c3ccc4cc(C#N)cnn34)ncc2-c2nnc(N3C[C@H]4CC[C@@H](C3)O4)s2)COC1 [Example 145, 7-(5-(5-((1R,5S)-8-oxa-3-azabicyclo[3.2.1]octan-3-yl)-1,3,4-thiadiazol-2-yl)-4-((3-methyloxetan-3-yl)amino)pyridin-2-yl)pyrrolo[1,2-b]pyridazine-3-carbonitrile] | 9.48 | 8.25 | 
CC(=O)Nc1nnc(-c2cnc(-c3ccc4cc(C#N)cnn34)cc2NC(C)C)s1 [Example 19, N-(5-(6-(3-cyanopyrrolo[1,2-b]pyridazin-7-yl)-4-(isopropylamino)pyridin-3-yl)-1,3,4-thiadiazol-2-yl)acetamide] |  |  | pIC50 (IRAK4 enzyme; [2]): 9.00; pEC50 (TNFα; [3]): 5.23
CC(C)Nc1cc(-c2ccc3cc(C#N)cnn23)ncc1-c1nnc(N2C3CC2CN(C(=O)C(C)(C)O)C3)s1 [Compound 275, 7-(5-(5-(3-(2-hydroxy-2-methylpropanoyl)-3,6-diazabicyclo[3.1.1]heptan-6-yl)-1,3,4-thiadiazol-2-yl)-4-(isopropylamino)pyridin-2-yl)pyrrolo[1,2-b]pyridazine-3-carbonitrile] | 9.11 | 8.19 | 
CC(=O)N[C@@H]1CCN(c2nnc(-c3cnc(-c4ccc5cc(C#N)cnn45)cc3NC(C)C)s2)C[C@@H]1F [Compound 250, N-((3S,4R)-1-(5-(6-(3-cyanopyrrolo[1,2-b]pyridazin-7-yl)-4-(isopropylamino)pyridin-3-yl)-1,3,4-thiadiazol-2-yl)-3-fluoropiperidin-4-yl)acetamide] | 8.93 | 8.08 | 
CC(C)Nc1cc(-c2ccc3cc(C#N)cnn23)ncc1-c1nnc([C@H]2C[C@@H]2C(C)(C)O)s1 (single isomer, unassigned; isomer 2) [132 Isomer 2] |  |  | pIC50 (IRAK4 enzyme; [4]): 8.89; pEC50 (TNFα; [5]): 7.82
CC(C)Nc1cc(-c2ccc3cc(C#N)cnn23)ncc1-c1nnc(N2CC3CCCC(C3)C2)s1 [Example 295, 7-(5-(5-(3-azabicyclo[3.3.1]nonan-3-yl)-1,3,4-thiadiazol-2-yl)-4-(isopropylamino)pyridin-2-yl)pyrrolo[1,2-b]pyridazine-3-carbonitrile] | 7.24 | 6.00 | 
CC(C)Nc1cc(-c2ccc3cc(C#N)cnn23)ncc1-c1nnc(N2C3CNCC2C3)s1 [Compound 274, 7-(5-(5-(3,6-diazabicyclo[3.1.1]heptan-6-yl)-1,3,4-thiadiazol-2-yl)-4-(isopropylamino)pyridin-2-yl)pyrrolo[1,2-b]pyridazine-3-carbonitrile] | 8.80 |  | pEC50 (TNFα; Homo sapiens, Monocyte, read-out: EC50 MONO TNF HTRF): 7.39
CC(=O)NC1CCN(c2nnc(-c3cnc(-c4ccc5cc(C#N)cnn45)cc3NC(C)C)s2)[C@@H](C)C1 (stereo partly drawn) [Compound 249, N-((2S)-1-(5-(6-(3-cyanopyrrolo[1,2-b]pyridazin-7-yl)-4-(isopropylamino)pyridin-3-yl)-1,3,4-thiadiazol-2-yl)-2-methylpiperidin-4-yl)acetamide] | 9.04 | 8.05 | 
Cc1nnc(-c2cnc(-c3ccc4cc(C#N)cnn34)cc2NC(C)C)s1 [Example 25, 7-(4-(isopropylamino)-5-(5-methyl-1,3,4-thiadiazol-2-yl)pyridin-2-yl)pyrrolo[1,2-b]pyridazine-3-carbonitrile] |  |  | pIC50 (IRAK4 enzyme; [2]): > 9.00; pEC50 (TNFα; [3]): 5.84
CC(C)Nc1cc(-c2ccc3cc(C#N)cnn23)ncc1-c1nnc(NC[C@@H](F)C(C)(C)O)s1 [Example 27, (R)-7-(5-(5-((2-fluoro-3-hydroxy-3-methylbutyl)amino)-1,3,4-thiadiazol-2-yl)-4-(isopropylamino)pyridin-2-yl)pyrrolo[1,2-b]pyridazine-3-carbonitrile] |  |  | pIC50 (IRAK4 enzyme; [2]): 9.00; pEC50 (TNFα; [3]): 7.17
CC(C)Nc1cc(-c2ccc3cc(C#N)cnn23)ncc1-c1nnc(C(=O)N2CC[C@H](O)C2)s1 [Example 16, (S)-7-(5-(5-(3-hydroxypyrrolidine-1-carbonyl)-1,3,4-thiadiazol-2-yl)-4-(isopropylamino)pyridin-2-yl)pyrrolo[1,2-b]pyridazine-3-carbonitrile] |  |  | pIC50 (IRAK4 enzyme; [2]): > 9.00; pEC50 (TNFα; [3]): 7.46
CC(=O)N[C@H]1CCN(c2nnc(-c3cnc(-c4ccc5cc(C#N)cnn45)cc3NC(C)C)s2)CC1(F)F [Example 169, (S)-N-(1-(5-(6-(3-cyanopyrrolo[1,2-b]pyridazin-7-yl)-4-(isopropylamino)pyridin-3-yl)-1,3,4-thiadiazol-2-yl)-3,3-difluoropiperidin-4-yl)acetamide] | 9.03 | 6.66 | 
CC(C)Nc1cc(-c2ccc3cc(C#N)cnn23)ncc1-c1nnc(N2CC[C@@](C)(O)[C@H](F)C2)s1 [Example 191, 7-(5-(5-((3R,4R)-3-fluoro-4-hydroxy-4-methylpiperidin-1-yl)-1,3,4-thiadiazol-2-yl)-4-(isopropylamino)pyridin-2-yl)pyrrolo[1,2-b]pyridazine-3-carbonitrile] | 8.94 | 7.64 | 
CNC(=O)c1nnc(-c2cnc(-c3ccc4cc(C#N)cnn34)cc2NC(C)C)s1 [Example 15, 5-(6-(3-cyanopyrrolo[1,2-b]pyridazin-7-yl)-4-(isopropylamino)pyridin-3-yl)-N-methyl-1,3,4-thiadiazole-2-carboxamide] |  |  | pIC50 (IRAK4 enzyme; [2]): > 9.00; pEC50 (TNFα; [3]): 5.47
CC(C)(O)[C@@H]1C[C@@H]1c1nnc(-c2cnc(-c3ccc4cc(C#N)cnn34)cc2NC2COC2)s1 (single isomer, unassigned; isomer 3) [136 Isomer 3] |  |  | pIC50 (IRAK4 enzyme; [4]): 9.19; pEC50 (TNFα; [5]): 7.41
CC(=O)N[C@@H]1CCN(C(=O)c2nnc(-c3cnc(-c4ccc5cc(C#N)cnn45)cc3NC(C)C)s2)C1 [Example 13, (R)-N-(1-(5-(6-(3-cyanopyrrolo[1,2-b]pyridazin-7-yl)-4-(isopropylamino)pyridin-3-yl)-1,3,4-thiadiazole-2-carbonyl)pyrrolidin-3-yl)acetamide] |  |  | pIC50 (IRAK4 enzyme; [2]): > 9.00; pEC50 (TNFα; [3]): 7.64
